≈ marks a conversion by molar mass, not a printed value.

What all share (format): functional, organism-based
In experiment [1] the test system is Plasmodium falciparum. The experiment can be described thus: In vitro antimalarial activity against Plasmodium falciparum W-2 (Indochina).
Experiment [2] relates to Plasmodium falciparum. As to the kind of experiment: In vitro antimalarial activity against Plasmodium falciparum D6 Sierra Leone relative to artemisinin.
In experiment [3] the test system is Plasmodium falciparum. As to the kind of experiment: In vitro antimalarial activity relative to artemisinin against Plasmodium falciparum W-2 (Indochina).
Experiment [4] concerns Plasmodium falciparum. As to the kind of experiment: In vitro antimalarial activity against Plasmodium falciparum D6 Sierra Leone.
Experiment [5] deals with Plasmodium falciparum. As to the kind of experiment: In vitro antimalarial activity relative to artemisinin against Plasmodium falciparum W2 (Indochina); Not active <= 5000 ng/mL.
In experiment [6] the test system is Plasmodium falciparum. As to the kind of experiment: In vitro antimalarial activity against Plasmodium falciparum D6 (Sierra Leone); Not active <= 5000 ng/mL.
Experiment [7] has as its system Plasmodium falciparum. As to the kind of experiment: In vitro antimalarial activity against Plasmodium falciparum D-6 Sierra Leone relative to artemisinin; Not active <= 5000 ng/mL.
Experiment [8] deals with Plasmodium falciparum. The experiment can be described thus: In vitro antimalarial activity against Plasmodium falciparum W-2 (Indochina) relative to artemisinin; Not active at <5000 ng/mL.

As for `C=C1C2CC[C@@H](C)C3CC[C@@]4(C)OO[C@@]23[C@H](O[C@@H]1O)O4` (stereo partly drawn), the results for the 50% inhibitory concentration (IC50) with Plasmodium falciparum [1] and in the experiment on Plasmodium falciparum [4] were 232 ng/mL (≈ 0.822 µM) and 119 ng/mL (≈ 0.421 µM), respectively. In addition, the IC50 ratio with Plasmodium falciparum [2] is 63; in the experiment on Plasmodium falciparum [3], 242.
As to `C[C@@H]1CCC2[C@]34OO[C@](C)(CCC13)O[C@H]4OC(=O)[C@@]2(O)CO` (stereo partly drawn), the IC50 result with Plasmodium falciparum [5], with Plasmodium falciparum [6], with Plasmodium falciparum [7] and in the experiment with Plasmodium falciparum [8] was “Not Active” throughout.
Take `CSC1=NN=C2C3CC[C@@H](C)C4CC[C@@]5(C)OO[C@@]34[C@H](OC2(O)S1)O5` (stereo partly drawn): the IC50 was 564 ng/mL (≈ 1.46 µM) with Plasmodium falciparum [1] and 789 ng/mL (≈ 2.04 µM) with Plasmodium falciparum [4]. Further, the IC50 ratio worked out at 305 in the experiment with Plasmodium falciparum [2] and 429 with Plasmodium falciparum [3].
`C=C1C2CC[C@@H](C)C3CC[C@@]4(C)OO[C@@]23[C@H](O[C@@H]1OO)O4` (stereo partly drawn): the values for the concentration for half-maximal inhibition (IC50) in the experiment with Plasmodium falciparum [1] and with Plasmodium falciparum [4] were 8.12 ng/mL (≈ 0.0272 µM) and 4.08 ng/mL (≈ 0.0137 µM), respectively. Further, the IC50 ratio in the experiment with Plasmodium falciparum [2] came out at 2; in the experiment with Plasmodium falciparum [3], 8.
Regarding `C[C@@H]1CCC2[C@]34OO[C@](C)(CCC13)O[C@H]4OC(=O)[C@@]21CCN=N1` (stereo partly drawn), the concentration for half-maximal inhibition (IC50) in the experiment on Plasmodium falciparum [1] is 447 ng/mL (≈ 1.39 µM); with Plasmodium falciparum [4] it was 604 ng/mL (≈ 1.87 µM). Besides, the figures for the IC50 ratio in the experiment with Plasmodium falciparum [2] and in the experiment with Plasmodium falciparum [3] were 280 and 408, respectively.
For `C[C@@H]1CCC2[C@]34OO[C@](C)(CCC13)O[C@H]4OC(=O)[C@]21CO1` (stereo partly drawn), the IC50 entry in the experiment on Plasmodium falciparum [5], with Plasmodium falciparum [6], in the experiment on Plasmodium falciparum [7] and in the experiment with Plasmodium falciparum [8] was “Not Active” each time.
In the case of `C[C@@H]1CCC2[C@H](O)[C@H](O)O[C@@H]3O[C@@]4(C)CCC1[C@@]23OO4` (stereo partly drawn), the IC50 worked out at 7.4 ng/mL (≈ 0.0258 µM) in the experiment on Plasmodium falciparum [1] and 7.3 ng/mL (≈ 0.0255 µM) with Plasmodium falciparum [4]. Further, the figures for the IC50 ratio with Plasmodium falciparum [2] and in the experiment on Plasmodium falciparum [3] were 3.8 and 7.6, respectively.
The corresponding values for `C[C@@H]1CCC2C(=O)C(=O)O[C@@H]3O[C@@]4(C)CCC1[C@@]23OO4` (stereo partly drawn) are 278 ng/mL (≈ 0.985 µM), 319 ng/mL (≈ 1.13 µM), 169 and 290.
On to `C[C@@H]1CCC2C3(CC3)C(=O)O[C@@H]3O[C@@]4(C)CCC1[C@@]23OO4` (stereo partly drawn), for which the IC50 was 8.6 ng/mL (≈ 0.0292 µM) in the experiment with Plasmodium falciparum [1] and 10 ng/mL (≈ 0.034 µM) with Plasmodium falciparum [4]. Further, the IC50 ratio was determined as 5.2 in the experiment on Plasmodium falciparum [2] and 8.6 with Plasmodium falciparum [3].
Turning to `C[C@@H]1CCC2[C@]34OO[C@](C)(CCC13)O[C@H]4O[C@H](OO)[C@]21CO1` (stereo partly drawn), the IC50 turned out to be 4 ng/mL (≈ 0.0127 µM) with Plasmodium falciparum [1] and 2 ng/mL (≈ 0.00636 µM) in the experiment with Plasmodium falciparum [4]. For the same compound, the results for the IC50 ratio in the experiment with Plasmodium falciparum [2] and in the experiment with Plasmodium falciparum [3] were 0.9 and 3.7, respectively.
Taken in the same sequence, the figures for `C[C@@H]1CCC2[C@@]3(CO3)C(O)O[C@@H]3O[C@@]4(C)CCC1[C@@]23OO4` (stereo partly drawn) were 3.4 ng/mL (≈ 0.0114 µM), 1.8 ng/mL (≈ 0.00603 µM), 0.9 and 3.4.
The corresponding values for `C[C@@H]1CCC2[C@]34OO[C@](C)(CCC13)O[C@H]4O[C@H](OO)[C@@]21CO1` (stereo partly drawn) are 4.5 ng/mL (≈ 0.0143 µM), 2.8 ng/mL (≈ 0.00891 µM), 1.3 and 4.2.
Taken in the same sequence, the figures for `C[C@@H]1CCC2[C@]34OO[C@](C)(CCC13)O[C@H]4OC(=O)[C@@]2(Br)CBr` (stereo partly drawn) were 67 ng/mL (≈ 0.152 µM), 77 ng/mL (≈ 0.175 µM), 26 and 44.
Regarding `C[C@@H]1CCC2[C@]34OO[C@](C)(CCC13)O[C@H]4OC(=O)[C@@]21CO1` (stereo partly drawn), the half-inhibitory concentration (IC50) with Plasmodium falciparum [1] is 124 ng/mL (≈ 0.418 µM); with Plasmodium falciparum [4], 96 ng/mL (≈ 0.324 µM). The IC50 ratio came to 48 in the experiment with Plasmodium falciparum [2] and 123 in the experiment on Plasmodium falciparum [3].
Taken in the same sequence, the figures for `C=C1C(=O)O[C@@H]2O[C@@]3(C)CC[C@H]4[C@H](C)CC[C@@H]1[C@@]24OO3` [ARTEMISITENE] were 7.44 ng/mL (≈ 0.0265 µM), 5.3 ng/mL (≈ 0.0189 µM), 2.8 and 7.8.
In the case of `C/C=C1\C(=O)O[C@@H]2O[C@@]3(C)CCC4[C@H](C)CC[C@@H]1[C@]42OO3` (stereo partly drawn), the values for the half-maximal inhibitory concentration (IC50) with Plasmodium falciparum [1] and in the experiment on Plasmodium falciparum [4] were 2.3 ng/mL (≈ 0.00781 µM) and 2.1 ng/mL (≈ 0.00713 µM), respectively. For the same compound, the results for the IC50 ratio in the experiment on Plasmodium falciparum [2] and in the experiment on Plasmodium falciparum [3] were 1.1 and 2.3, respectively.
Regarding `C[C@@H]1CC[C@H]2[C@@H](C)C(=O)O[C@@H]3O[C@@]4(C)CC[C@@H]1[C@]32OO4` [ARTEMISININ], the IC50 in the experiment with Plasmodium falciparum [1] was determined as 0.95 ng/mL (≈ 0.00336 µM); in the experiment on Plasmodium falciparum [3] (Plasmodium falciparum) it was 1 ng/mL (≈ 0.00354 µM); with Plasmodium falciparum [4], 1.89 ng/mL (≈ 0.00669 µM). The IC50 ratio in the experiment with Plasmodium falciparum [2] is 1.

For the origin of these results see ChEMBL document CHEMBL1126954, “Synthesis and antimalarial activity of some 9-substituted artemisinin derivatives” (J Med Chem, 1993).
